Measurements as given in PMC4234510, “Plasmodium falciparum UvrD activities are downregulated by DNA-interacting compounds and its dsRNA inhibits malaria parasite growth” (BMC Biochemistry, 2014).
pIC50: −log10 of the molar value. Where two headings read alike, the source gives them in different places. Values belong to the molecule of their own block, whether it stands above or below them. Starred links: 1 amine or outer side, 2 acyl side, 3 side chain; linkers in the order of their positions; H or OH if unused. Positions of bridges follow the written chain, without caps; N, C: chain ends. Non-standard residues stand in square brackets, D forms with d. Residues, ends and D or L forms follow the SMILES beside them. Chains are numbered I, II in the order given. Actinocin(9to1) = Cc1c2oc3c(C)ccc(C(=O)[*:1])c3nc-2c(C(=O)[*:2])c(N)c1=O; NMeV = CN[C@H](C(=O)O)C(C)C; Sar = CNCC(=O)O

Legend:
PfUDN [1] = experiment: ssDNA-dependent ATPase assay of PfUDN; type: biochemical, Plasmodium falciparum; settings: for effect on ssDNA dependent ATPase activity of PfUDN: compound 20 μM, PfUDN 100 nM, reaction mixture (DNA) preincubated 15 min with compound, Figure 1A; for pIC50: inhibitor 0.2-5.0 μM (ciprofloxacin 0.5-30 μM), read-out: IC50, inhibition of ssDNA-dependent ATPase activity of PfUDN
Description: Standard protocol of ATPase assay was followed as described in the previous report. The hydrolysis of ATP catalyzed by PfUDN was assayed by measuring the formation of Pi from [γ-^32P] ATP. The reaction mixture of 10 μl contained [γ-^32P] ATP (specific activity 222 TBq.mmol^-1) and cold ATP (1 mM), ATPase buffer (20 mM Tris-HCl, pH 8.0, 8 mM DTT, 1.0 mM MgCl2, 20 mM KCl and 16 μg/ml BSA), purified PfUDN and 50 ng or 100 ng of M13 mp19 ssDNA. The reaction mixtures were incubated at 37°C for 60 min. This was followed by thin layer chromatography (TLC), and the quantitation was done using Alpha Imager-EP/Image-J software ( http://rsbweb.nih.gov/ij/). In order to study the effect of various compounds on ssDNA-dependent ATPase activity, different compounds were added into the reaction mixture prior to the addition of the PfUDN. In another set of experiment, PfUDN was pre-incubated (15 min) with these compounds in order to obtain the insight of inhibitory mechanism. All the experiments were performed at least two times and quantification data was used to calculate the standard deviation using Microsoft Excel 2010 and mean value was used to prepare the graph.

PfUDN [2] = experiment: DNA helicase (unwinding) assay of PfUDN; type: biochemical, Plasmodium falciparum; settings: for effect on DNA unwinding (helicase) activity of PfUDN: compound 20 μM, partial duplex substrate, Figure 3; for pIC50: inhibitor 0.5-5.0 μM, unit printed in text b27, not in table or picture labels, read-out: IC50, inhibition of helicase (DNA unwinding) activity of PfUDN; for effect on helicase activity of PfUDN at lower concentration: upto 5 μM concentration tested (data not shown)
Description: The specially designed partial duplex substrate consisted of a ^32P-labelled 47-mer DNA oligodeoxynucleotide annealed to M13mp19 phage ssDNA. This oligodeoxynucleotide of the nucleotide sequence 5'- (T)15[…](T)15-3' contains 15 base-pairs of non-complementary region (T)15 at both the 5’ and 3’ ends. Oligodeoxynucleotide was labeled at 5′-end with T4 polynucleotide kinase (PNK) (5U) (New England Biolabs) and 1.85 MBq of [γ-^32P] ATP (specific activity 222 TBq/mmol) at 37°C for one hour and then annealed using standard annealing buffer (20 mM Tris-HCl, pH 7.5, 10 mM MgCl2, 100 mM NaCl, 1 mM DTT) with 0.5 μg of single-stranded circular M13mp19 (+) phage DNA by heating at 95°C for 1 min and then transferring immediately to 65°C for 2 min and then slow cooling to room temperature. Using gel filtration through a Sepharose 4B column (Pharmacia, Sweden) the non-hybridized oligodeoxynucleotide was removed. The reaction volume of 10 μl containing the ^32P-labeled helicase substrate (1000 cpm/10 μl) in appropriate buffer (20 mMTris-HCl, pH 8.0, 8 mM DTT, 1.0 mM MgCl2, 20 mMKCl and 16 μg/ml BSA) and PfUDN was incubated at 37°C for 60 min. The substrate and products were separated by electrophoresis on a nondenaturing 12% PAGE and the gel was exposed to hyper film for autoradiography or scanned on phosphoimager. In order to study the effect of DNA-interacting compounds on helicase activity, different compounds were added to the helicase reaction mixture prior to the addition of the PfUDN helicase. All the experiments were performed in duplicate and quantitation of both the substrate and unwound DNA bands was done using AlphaImager-EP/Image-J software ( http://rsbweb.nih.gov/ij/). Quantification data was used to calculate the standard deviation using Microsoft Excel 2010 and mean value was used to prepare the graph.

PfH45 [3] = settings: comparison column of Table 1; no unit and no reference given; read-out: inhibitory potential for ATPase activity, PfH45; cited from earlier work
PfH45 [4] = settings: Table 2; no unit and no reference given; read-out: inhibitory potential for helicase activity, PfH45; cited from earlier work
PfDH60 [5] = settings: Table 2; no unit and no reference given; read-out: inhibitory potential for helicase activity, PfDH60; cited from earlier work
PfD66/PfDDX19 [6] = settings: Table 2; no unit and no reference given; read-out: inhibitory potential for helicase activity, PfD66/PfDDX19; cited from earlier work
PfD66/PfDDX19 [7] = settings: comparison column of Table 1; no unit and no reference given; read-out: inhibitory potential for ATPase activity, PfD66/PfDDX19; cited from earlier work
PfDH60 [8] = settings: comparison column of Table 1; no unit and no reference given; read-out: inhibitory potential for ATPase activity, PfDH60; cited from earlier work
malaria parasite = settings: cited from earlier work
[9] = unit printed in text b20, not in table or picture labels

Compound: Cc1c2oc3c(C)ccc(C(=O)N[C@@H]4C(=O)N[C@H](C(C)C)C(=O)N5CCC[C@H]5C(=O)N(C)CC(=O)N(C)[C@@H](C(C)C)C(=O)O[C@@H]4C)c3nc-2c(C(=O)N[C@@H]2C(=O)N[C@H](C(C)C)C(=O)N3CCC[C@H]3C(=O)N(C)CC(=O)N(C)[C@@H](C(C)C)C(=O)O[C@@H]2C)c(N)c1=O [actinomycin] (I: T[dV]P[Sar][NMeV] / II: T[dV]P[Sar][NMeV]; ester I:1-I:C, II:1-II:C; linker I:N-II:N via Actinocin(9to1))
effect on ssDNA dependent ATPase activity of PfUDN (PfUDN [1]): not able to considerably inhibit | effect on DNA unwinding (helicase) activity of PfUDN (PfUDN [2]): not able to considerably inhibit

Compound: COc1cccc2c1C(=O)c1c(O)c3c(c(O)c1C2=O)C[C@@](O)(C(C)=O)C[C@@H]3O[C@H]1C[C@H](N)[C@H](O)[C@H](C)O1 [Daunorubicin, daunorubicin]
effect on ssDNA dependent ATPase activity of PfUDN (PfUDN [1]): top four inhibitors | pIC50 (PfUDN [1]): ~5.52 | pIC50 (PfH45 [3]): 5.30 | effect on DNA unwinding (helicase) activity of PfUDN (PfUDN [2]): inhibit the DNA unwinding activity of PfUDN effectively | pIC50 (PfUDN [2]; listed as daunorubicin): ~5.52 | pIC50 (PfUDN [2]): 5.52 | pIC50 (PfH45 [4]): 5.82 | pIC50 (PfDH60 [5]): 6.52

effect on ssDNA dependent ATPase activity of PfUDN (PfUDN [1]): not able to considerably inhibit | effect on DNA unwinding (helicase) activity of PfUDN (PfUDN [2]): not able to considerably inhibit
Compound: O=c1c(-c2ccc(O)cc2)coc2cc(O)cc(O)c12 [genistein]

effect on ssDNA dependent ATPase activity of PfUDN (PfUDN [1]): not able to considerably inhibit | effect on DNA unwinding (helicase) activity of PfUDN (PfUDN [2]): not able to considerably inhibit
Compound: CO[C@@H]1[C@@H](OC(N)=O)[C@@H](O)[C@H](Oc2ccc3c(O)c(NC(=O)c4ccc(O)c(CC=C(C)C)c4)c(=O)oc3c2C)OC1(C)C [novobiocin]

Compound: Cn1cc(NC(=O)c2cc(NC(=O)CN=C(N)N)cn2C)cc1C(=O)NCCC(=N)N [Netropsin, netropsin]
effect on ssDNA dependent ATPase activity of PfUDN (PfUDN [1]): top four inhibitors | pIC50 (PfUDN [1]; [9]): 5.51 | pIC50 (PfD66/PfDDX19 [6]): 6.30 | pIC50 (PfH45 [3]): 5.82 | effect on DNA unwinding (helicase) activity of PfUDN (PfUDN [2]): inhibit the DNA unwinding activity of PfUDN effectively | pIC50 (PfUDN [2]): 5.33 | pIC50 (PfD66/PfDDX19 [7]): 6.00 | pIC50 (PfH45 [4]): 6.30 | pIC50 (PfDH60 [5]): 5.92

effect on ssDNA dependent ATPase activity of PfUDN (PfUDN [1]): inhibit
Compound: N=C(N)c1ccc(-c2cc3ccc(C(=N)N)cc3[nH]2)cc1 [DAPI]

effect on ssDNA dependent ATPase activity of PfUDN (PfUDN [1]): weakly inhibit | effect on DNA unwinding (helicase) activity of PfUDN (PfUDN [2]): not able to considerably inhibit
Compound: O=c1c(O)c(-c2ccc(O)cc2O)oc2cc(O)cc(O)c12 [morin]

Compound: O=P1(N(CCCl)CCCl)NCCCO1 (centres unmarked) [cyclophosphamide]
effect on ssDNA dependent ATPase activity of PfUDN (PfUDN [1]): not able to considerably inhibit | effect on DNA unwinding (helicase) activity of PfUDN (PfUDN [2]): not able to considerably inhibit

Compound: COC(=O)[C@@H]1c2cc3c(c(O)c2[C@@H](O[C@@H]2O[C@@H](C)[C@H](OC)[C@@](C)(OC)[C@H]2OC)C[C@]1(C)O)C(=O)c1c(O)cc2c(c1C3=O)O[C@@H]1O[C@@]2(C)[C@H](O)[C@@H](N(C)C)[C@@H]1O [Nogalamycin, nogalamycin]
effect on ssDNA dependent ATPase activity of PfUDN (PfUDN [1]): top four inhibitors | pIC50 (PfUDN [1]; [9]): 5.48 | pIC50 (PfD66/PfDDX19 [6]): 5.30 | pIC50 (PfH45 [3]): 6.10 | effect on DNA unwinding (helicase) activity of PfUDN (PfUDN [2]): inhibit the DNA unwinding activity of PfUDN effectively | pIC50 (PfUDN [2]): 5.46 | pIC50 (PfH45 [4]): 6.30 | pIC50 (PfDH60 [5]): 5.70 | pIC50 (PfDH60 [8]): 6.30

effect on ssDNA dependent ATPase activity of PfUDN (PfUDN [1]): not able to considerably inhibit | effect on DNA unwinding (helicase) activity of PfUDN (PfUDN [2]): blocks the helicase activity appreciably | effect on helicase activity of PfUDN at lower concentration (PfUDN [2]): failed to show appreciable inhibition
Compound: COc1cc([C@@H]2c3cc4c(cc3[C@@H](O[C@@H]3O[C@@H]5CO[C@@H](C)O[C@H]5[C@H](O)[C@H]3O)[C@H]3COC(=O)[C@H]23)OCO4)cc(OC)c1O [etoposide]

Compound: N.N.[Cl][Pt][Cl] [cisplatin]
effect on ssDNA dependent ATPase activity of PfUDN (PfUDN [1]): not able to considerably inhibit | effect on DNA unwinding (helicase) activity of PfUDN (PfUDN [2]): not able to considerably inhibit

Compound: CC[n+]1c(-c2ccccc2)c2cc(N)ccc2c2ccc(N)cc21 [Ethidium bromide, ethidium bromide]
effect on ssDNA dependent ATPase activity of PfUDN (PfUDN [1]): top four inhibitors | pIC50 (PfD66/PfDDX19 [6]): 6.00 | pIC50 (PfH45 [3]): 5.82 | effect on DNA unwinding (helicase) activity of PfUDN (PfUDN [2]): inhibit the DNA unwinding activity of PfUDN effectively | pIC50 (PfUDN [2]): 5.32 | pIC50 (PfD66/PfDDX19 [7]): 5.82 | pIC50 (PfH45 [4]): 6.00 | pIC50 (PfDH60 [5]): 5.82 | pIC50 (PfDH60 [8]): 5.60

Compound: O=C(O)c1cn(C2CC2)c2cc(N3CCNCC3)c(F)cc2c1=O [Ciprofloxacin, ciprofloxacin]
effect on ssDNA dependent ATPase activity of PfUDN (PfUDN [1]): weakly inhibit | pIC50 (PfUDN [1]; unit printed in text b20, not in table or picture labels, listed as ciprofloxacin): ~5.00 | pIC50 (PfUDN [1]; [9]): 5.00 | effect on DNA unwinding (helicase) activity of PfUDN (PfUDN [2]): inhibit the DNA unwinding activity of PfUDN effectively | effect on helicase activity of PfUDN at lower concentration (PfUDN [2]): failed to show appreciable inhibition | inhibition of malaria parasite growth (malaria parasite): found effective

Compound: CC[C@@]1(O)C(=O)OCc2c1cc1n(c2=O)Cc2cc3ccccc3nc2-1 [camptothecin]
effect on ssDNA dependent ATPase activity of PfUDN (PfUDN [1]): not able to considerably inhibit | effect on DNA unwinding (helicase) activity of PfUDN (PfUDN [2]): not able to considerably inhibit
